According to patent US20040136938A1, “Composition of vitamin c and/or vitamin a” (priority 2000, published 2004):

Key:
cells = details: cited from earlier work
[1] = tested on: fibroblasts of mammaplasty; experiment: Collagen synthesis by fibroblasts (Sirius red coloration); assay type: cell-based, human
Method: The fibroblasts of mammaplasty of a person, in passage 14, were seeded on 12-well plates at the rate of 0.5.10^5 cells per well. The cells are placed in culture for 48 hours in the presence of a DMEM culture medium at 10% of fetal calf serum (SVF), in stove (5% (v/v) CO2, 95% (v/v) air) at 37° C.
After rinsing with PBS, they are treated and placed again in culture for 48 hours in the presence of products to be tested and of DMEM without SVF.
The method is based on a specific coloration of collagen by the Sirius red. The cells are directly fixed by the Bouin liquid (1 ml/well) for 1 hour, after exhaustive rinsing with PBS. The fixer is then aspirated and the plates are rinsed with running water by immersion for 15 minutes.
The coloration is carried out under stirring for 1 hour (1 ml/well) and the plates are then rinsed with hydrochloric acid 0.01 N. Then the material is dissolved in 200 μl of sodium hydroxide 0.1N before transferring to the microtiter plates (Nunc). The optical density is measured at 550 nm against sodium hydroxide as a blank.
The counting of the cells is carried out in 4 wells of each plate, and one detaches the cells with tripsin at 0.05%.
One studied the effect of fucose and of the Mixture of oligofucoses-1 (at 10 μg/ml each) in the presence or absence of sodium ascorbate at 500 μg/ml. And then in the presence or absence of retinol (10 μg/ml).

[2] = tested on: fibroblasts of human skin; experiment: Cellular proliferation of fibroblasts of human skin ([3H]-thymidine incorporation, 72 h); assay type: cell-based; details: for decrease in the cellular proliferation: retinol 20 μg/ml (69.72 μM) alone, vs. reference without retinol
Method: The Mixture of oligofucoses-1 as prepared in example 1 is tested in concentrations of 1 μg/ml and 10μg/ml, both alone and in the simultaneous presence of 375 μg/ml of sodium ascorbate and/or 20 μg/ml of retinol.
The fibroblasts of human skin used in this study come from the removal of skin from a person (28th passing). The cells were cultivated on 12-well plates, in a DMEM culture medium with 10% of fetal calf serum (SVF), 1% of antibiotics and of antifungus (PSF), and 1 μCi/ml of [^3H]-timidine (ICN) for 72 hours in the presence of the products to be tested at final concentrations of 1 μg/ml and 10 μg/ml.
After 72 hours of culture in stove (5% (v/v) CO2, 95% (v/v) air) at 37° C. in the presence of the tested products, the cells were washed four times with PBS, then the cellular carpet was detached for 0.05% of tripsin. Three ml of scintillation liquid were then added per sample, then the radioactivity incorporated in the cells is read in a computer with scintillation.
One incubated the cells with 20 μg/ml of retinol (69.72 μM). […] Two concentrations were tested: 1 μg/ml and 10 μg/ml.
One incubated the cells with 375 μg/ml of Na ascorbate (1.875 mM). […] Two concentrations were tested: 1 μg/ml and 10 μg/ml.
The cells were simultaneously incubated with 375 μg/ml of Na ascorbate and 20 μg/ml of retinol.

For O=C1O[C@H]([C@@H](O)CO)C(O)=C1O [ascorbic acid], which “concentration from which cytotoxic effect starts” value (cells) is on record?
The value was “about 0.01 % by weight”.

For C[C@H](O)[C@@H](O)[C@@H](O)[C@H](O)C=O [fucose], which “effect on synthesis of collagen in the presence of retinol” value ([1]; 10 μg/ml with retinol 10 μg/ml, 48 h) is on record?
Its value is “this inhibition is greatly abolished”.

And the “effect on biosynthesis of collagen in the presence of sodium ascorbate” value ([1]; 10 μg/ml with sodium ascorbate 500 μg/ml, 48 h)?
Its value is “stimulation of the biosynthesis of collagen”.

And the “decrease in the amount of collagen synthesized by the fibroblasts” value ([1]; fucose alone, 48 h, DMEM without SVF)?
Its value is “about 19%”.

For O=C1O[C@H]([C@@H](O)CO)C(O)=C1O [ascorbate], which “concentration at which cytotoxic effect can be observed” value (cells; cell detachment, slowed proliferation, cellular death) is on record?
The value was “about 2.5 mM”.

For CC1=C(/C=C/C(C)=C/C=C/C(C)=C/CO)C(C)(C)CCC1 [Retinol, retinol], which “decrease in the cellular proliferation” value [2] is on record?
Its value is “about 45%”.

What about the “decrease in the cellular proliferation” value ([2]; listed as retinol) of the same compound?
The value was 42.5%.

What about the “% vs. control (proliferation)” value ([2]; retinol 20 μg/ml alone) of the same compound?
Its value is −42.5%.

And the “effect on synthesis of collagen” value ([1]; retinol alone (10 μg/ml))?
The value was “inhibiting effect on the synthesis of collagen”.

Which “% vs. control (proliferation)” value ([2]; Na ascorbate 375 μg/ml alone) does the source give for O=C1O[C@H]([C@@H](O)CO)C([O-])=C1O.[Na+] [Na ascorbate, sodium ascorbate] here?
The value was −64.4%.

What about the “effect on synthesis of collagen” value ([1]; sodium ascorbate 500 μg/ml alone, with respect to the effect of 50 μg/ml) of the same compound?
The value was “activates the synthesis of collagen very little”.
